Numbered stars: 1 amine (or outer) side, 2 acyl side, 3 side chain; on linkers, the order of the positions; unused ones are H or OH. Square brackets hold non-standard residues; d marks the D form. Side chains are listed from the residue outwards. Peptide text beside a SMILES is read from it. * marks the point of attachment. γGlu = O=C(O)[C@H](CCC(=O)[*:2])N[*:1]; Palmitoyl = CCCCCCCCCCCCCCCC(=O)*; Aib = CC(C)(N)C(=O)O
How the values were obtained:
Type in all cases: cell-based
glucagon receptor = biological target: T1, glucagon receptor (Homo sapiens, UniProt P47871); experiment: cAMP induction, firefly luciferase reporter assay in HEK293 cells co-transfected with the glucagon receptor; conditions: HEK293 cells, cAMP-responsive luciferase reporter, 5 hours incubation
T1 construct: expressed in transfected cells; host or cells: HEK293
T1 sequence (P47871 26-477, species assumed): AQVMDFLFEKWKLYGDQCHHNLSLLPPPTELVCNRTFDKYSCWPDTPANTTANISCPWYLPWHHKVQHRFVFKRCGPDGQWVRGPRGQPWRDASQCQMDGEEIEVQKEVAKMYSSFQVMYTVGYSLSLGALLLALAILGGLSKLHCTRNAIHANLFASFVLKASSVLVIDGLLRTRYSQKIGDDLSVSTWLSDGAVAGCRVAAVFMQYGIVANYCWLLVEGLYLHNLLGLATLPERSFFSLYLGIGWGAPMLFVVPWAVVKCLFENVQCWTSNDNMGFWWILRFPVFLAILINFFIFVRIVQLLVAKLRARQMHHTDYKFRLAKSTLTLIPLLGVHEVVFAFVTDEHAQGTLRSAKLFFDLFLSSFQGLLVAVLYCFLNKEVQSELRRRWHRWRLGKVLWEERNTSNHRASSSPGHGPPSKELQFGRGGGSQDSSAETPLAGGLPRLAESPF
Method: (§1) The ability of each peptide to induce cAMP was measured in a firefly luciferase-based reporter assay. […] At the end of the incubation, 100 μL of LucLite luminescence substrate reagent (Perkin Elmer, Wellesley, Mass.) were added to each well. […] In some instances, the in vitro agonist activity at the GIP receptor was also tested.

GLP-1 receptor = biological target: T2, GLP-1 receptor (Homo sapiens, UniProt P43220); experiment: cAMP induction, firefly luciferase reporter assay in HEK293 cells co-transfected with the GLP-1 receptor; conditions: HEK293 cells, cAMP-responsive luciferase reporter, 5 hours incubation
T2 construct: expressed in transfected cells; host or cells: HEK293
T2 sequence (P43220 24-463): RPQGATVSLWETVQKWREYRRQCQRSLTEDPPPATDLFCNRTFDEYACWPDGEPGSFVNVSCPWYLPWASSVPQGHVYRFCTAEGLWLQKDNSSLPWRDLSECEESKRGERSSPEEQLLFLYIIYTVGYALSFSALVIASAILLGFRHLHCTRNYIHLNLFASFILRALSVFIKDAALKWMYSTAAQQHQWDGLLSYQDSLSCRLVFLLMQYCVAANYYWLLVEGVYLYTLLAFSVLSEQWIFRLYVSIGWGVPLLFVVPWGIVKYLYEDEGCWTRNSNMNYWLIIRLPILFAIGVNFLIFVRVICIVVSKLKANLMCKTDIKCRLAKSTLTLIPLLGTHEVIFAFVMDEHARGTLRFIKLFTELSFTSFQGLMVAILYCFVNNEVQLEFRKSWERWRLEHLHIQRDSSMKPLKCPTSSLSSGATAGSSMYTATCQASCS
Method: as §1

GIP receptor = biological target: T3, GIP receptor (Homo sapiens, UniProt P48546); experiment: in vitro agonist activity at the GIP receptor (cAMP luciferase reporter, HEK293 cells); conditions: in vitro agonist activity; read-out: EC50 (nM) at GIP receptor
T3 construct: expressed in transfected cells; host or cells: HEK293
T3 sequence (P48546 22-466): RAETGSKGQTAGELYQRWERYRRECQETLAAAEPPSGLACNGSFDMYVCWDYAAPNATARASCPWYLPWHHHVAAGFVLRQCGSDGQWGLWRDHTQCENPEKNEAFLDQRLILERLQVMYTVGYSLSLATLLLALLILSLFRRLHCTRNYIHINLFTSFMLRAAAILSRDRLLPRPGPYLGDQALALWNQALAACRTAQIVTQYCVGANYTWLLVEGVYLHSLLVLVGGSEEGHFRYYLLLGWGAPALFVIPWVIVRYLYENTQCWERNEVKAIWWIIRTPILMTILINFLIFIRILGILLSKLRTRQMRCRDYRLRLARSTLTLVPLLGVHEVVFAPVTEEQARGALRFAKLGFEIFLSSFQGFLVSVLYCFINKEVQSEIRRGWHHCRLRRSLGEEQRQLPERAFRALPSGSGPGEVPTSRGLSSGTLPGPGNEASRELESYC
Method: as §1, with “It is understood that a lower EC50 indicates higher activity or potency at the receptor. […] The” for “The”

| Structure (SMILES) | EC50 (glucagon receptor) | EC50 (GLP-1 receptor) | EC50 (GIP receptor) |
| --- | --- | --- | --- |
| CCCCCCCCCCCCCCCC(=O)N[C@@H](CCC(=O)N[C@@H](CCC(=O)NCCCC[C@H](NC(=O)[C@H](CC(=O)O)NC(=O)[C@H](CO)NC(=O)[C@@H](NC(=O)[C@H](Cc1ccccc1)NC(=O)[C@@H](NC(=O)CNC(=O)[C@H](CCC(N)=O)NC(=O)C(C)(C)NC(=O)[C@@H](N)Cc1c[nH]cn1)[C@@H](C)O)[C@@H](C)O)C(=O)N[C@@H](CO)C(=O)N[C@@H](CCCCN)C(=O)N[C@@H](Cc1ccc(O)cc1)C(=O)N[C@@H](CC(C)C)C(=O)N[C@@H](CC(=O)O)C(=O)NC(C)(C)C(=O)N[C@@H](CCCNC(=N)N)C(=O)N[C@@H](C)C(=O)N[C@@H](C)C(=O)N[C@@H](CCC(N)=O)C(=O)N[C@@H](CC(=O)O)C(=O)N[C@@H](Cc1ccccc1)C(=O)N[C@H](C(=O)N[C@@H](CCC(N)=O)C(=O)N[C@@H](Cc1c[nH]c2ccccc12)C(=O)N[C@@H](CC(C)C)C(=O)N[C@@H](CCSC)C(=O)N[C@@H](CCCCN)C(=O)NCC(=O)N[C@@H](CCCNC(=N)N)C(=O)NCC(=O)O)C(C)C)C(=O)O)C(=O)O [compound 31] (H-H[Aib]QGTFTSDK([γGlu-γGlu-Palmitoyl])SKYLD[Aib]RAAQDFVQWLMKGRG-OH; N-terminus assumed) | 0.016 nM | 0.007 nM | 2.34 nM |
| CCCCCCCCCCCCCCCC(=O)N[C@@H](CCC(=O)NCCCC[C@H](NC(=O)[C@H](CC(=O)O)NC(=O)[C@H](CO)NC(=O)[C@@H](NC(=O)[C@H](Cc1ccccc1)NC(=O)[C@@H](NC(=O)CNC(=O)[C@H](CCC(N)=O)NC(=O)[C@@H](CO)NC(=O)[C@H](Cc1c[nH]cn1)NC(C)=O)[C@@H](C)O)[C@@H](C)O)C(=O)N[C@@H](CO)C(=O)N[C@@H](CCCCN)C(=O)N[C@@H](Cc1ccc(O)cc1)C(=O)N[C@@H](CC(C)C)C(=O)N[C@@H](CC(=O)O)C(=O)N[C@@H](CCC(=O)O)C(=O)N[C@@H](CCCNC(=N)N)C(=O)N[C@@H](C)C(=O)N[C@@H](C)C(=O)N[C@@H](CCC(N)=O)C(=O)N[C@@H](CC(=O)O)C(=O)N[C@@H](Cc1ccccc1)C(=O)N[C@H](C(=O)N[C@@H](CCC(N)=O)C(=O)N[C@@H](Cc1c[nH]c2ccccc12)C(=O)N[C@@H](CC(C)C)C(=O)N[C@@H](CC(C)C)C(=O)N[C@@H](CC(=O)O)C(=O)N[C@H](C(N)=O)[C@@H](C)O)C(C)C)C(=O)O [compound 21] | 0.005 nM | 0.009 nM | 4.5 nM |
| CCCCCCCCCCCCCCCC(=O)N[C@@H](CCC(=O)N[C@@H](CCC(=O)NCCCC[C@H](NC(=O)[C@H](CC(=O)O)NC(=O)[C@H](CO)NC(=O)[C@@H](NC(=O)[C@H](Cc1ccccc1)NC(=O)[C@@H](NC(=O)CNC(=O)[C@H](CCC(N)=O)NC(=O)C(C)(C)NC(=O)[C@@H](N)Cc1c[nH]cn1)[C@@H](C)O)[C@@H](C)O)C(=O)N[C@@H](CO)C(=O)N[C@@H](CCCCN)C(=O)N[C@@H](Cc1ccc(O)cc1)C(=O)N[C@@H](CC(C)C)C(=O)N[C@@H](CC(=O)O)C(=O)NC(C)(C)C(=O)N[C@@H](CCCNC(=N)N)C(=O)N[C@@H](C)C(=O)N[C@@H](C)C(=O)N[C@@H](CCC(N)=O)C(=O)N[C@@H](CC(=O)O)C(=O)N[C@@H](Cc1ccccc1)C(=O)N[C@H](C(=O)N[C@@H](CCC(N)=O)C(=O)N[C@@H](Cc1c[nH]c2ccccc12)C(=O)N[C@@H](CC(C)C)C(=O)N[C@@H](CCCCN)C(=O)NC(C)(C)C(=O)NCC(=O)N[C@@H](CCCNC(=N)N)C(=O)NCC(N)=O)C(C)C)C(=O)O)C(=O)O [compound 26] (H-H[Aib]QGTFTSDK([γGlu-γGlu-Palmitoyl])SKYLD[Aib]RAAQDFVQWLK[Aib]GRG-NH2; N-terminus assumed) | 0.106 nM | 0.004 nM | 3.29 nM |
| CCCCCCCCCCCCCCCC(=O)NCCCC[C@H](NC(=O)[C@H](CC(=O)O)NC(=O)[C@H](CO)NC(=O)[C@@H](NC(=O)[C@H](Cc1ccccc1)NC(=O)[C@@H](NC(=O)CNC(=O)[C@H](CCC(N)=O)NC(=O)C(C)(C)NC(=O)[C@@H](N)Cc1c[nH]cn1)[C@@H](C)O)[C@@H](C)O)C(=O)N[C@@H](CO)C(=O)N[C@@H](CCCCN)C(=O)N[C@@H](Cc1ccc(O)cc1)C(=O)N[C@@H](CC(C)C)C(=O)N[C@@H](CC(=O)O)C(=O)N[C@@H](CO)C(=O)N[C@@H](CCCNC(=N)N)C(=O)N[C@@H](CCCNC(=N)N)C(=O)N[C@@H](C)C(=O)NC(C)(C)C(=O)N[C@@H](CC(=O)O)C(=O)N[C@@H](Cc1ccccc1)C(=O)N[C@H](C(=O)N[C@@H](CCC(N)=O)C(=O)N[C@@H](Cc1c[nH]c2ccccc12)C(=O)N[C@@H](CC(C)C)C(=O)N[C@@H](CCSC)C(=O)N[C@@H](CC(N)=O)C(=O)N[C@H](C(N)=O)[C@@H](C)O)C(C)C [compound 58] (H-H[Aib]QGTFTSDK(Palmitoyl)SKYLDSRRA[Aib]DFVQWLMNT-NH2) | 0.09 nM | 0.025 nM | 35.7 nM |
| CCCCCCCCCCCCCCCC(=O)N[C@@H](CCC(=O)NCCCC[C@H](NC(=O)[C@H](CC(=O)O)NC(=O)[C@H](CO)NC(=O)[C@@H](NC(=O)[C@H](Cc1ccccc1)NC(=O)[C@@H](NC(=O)CNC(=O)[C@H](CCC(N)=O)NC(=O)C(C)(C)NC(=O)[C@@H](N)Cc1c[nH]cn1)[C@@H](C)O)[C@@H](C)O)C(=O)N[C@@H](CO)C(=O)N[C@@H](CCCCN)C(=O)N[C@@H](Cc1ccc(O)cc1)C(=O)N[C@@H](CC(C)C)C(=O)N[C@@H](CC(=O)O)C(=O)NC(C)(C)C(=O)N[C@@H](CCCNC(=N)N)C(=O)N[C@@H](C)C(=O)N[C@@H](C)C(=O)N[C@@H](CCC(N)=O)C(=O)N[C@@H](CC(=O)O)C(=O)N[C@@H](Cc1ccccc1)C(=O)N[C@H](C(=O)N[C@@H](CCC(N)=O)C(=O)N[C@@H](Cc1c[nH]c2ccccc12)C(=O)N[C@@H](CC(C)C)C(=O)N[C@@H](CC(C)C)C(=O)N[C@@H](CC(=O)O)C(=O)NCC(=O)N[C@@H](CCCNC(=N)N)C(=O)NCC(N)=O)C(C)C)C(=O)O [compound 30] (H-H[Aib]QGTFTSDK([γGlu-Palmitoyl])SKYLD[Aib]RAAQDFVQWLLDGRG-NH2) | 0.933 nM | 0.0082 nM | 9.06 nM |
| CCCCCCCCCCCCCCCC(=O)N[C@@H](CCC(=O)N[C@@H](CCC(=O)NCCCC[C@H](NC(=O)[C@H](CC(=O)O)NC(=O)[C@H](CO)NC(=O)[C@@H](NC(=O)[C@H](Cc1ccccc1)NC(=O)[C@@H](NC(=O)CNC(=O)[C@H](CCC(N)=O)NC(=O)C(C)(C)NC(=O)[C@@H](N)Cc1c[nH]cn1)[C@@H](C)O)[C@@H](C)O)C(=O)N[C@@H](CO)C(=O)N[C@@H](CCCCN)C(=O)N[C@@H](Cc1ccc(O)cc1)C(=O)N[C@@H](CC(C)C)C(=O)N[C@@H](CC(=O)O)C(=O)NC(C)(C)C(=O)N[C@@H](CCCNC(=N)N)C(=O)N[C@@H](C)C(=O)N[C@@H](C)C(=O)N[C@@H](CCC(N)=O)C(=O)N[C@@H](CC(=O)O)C(=O)N[C@@H](Cc1ccccc1)C(=O)N[C@H](C(=O)N[C@@H](CCC(N)=O)C(=O)N[C@@H](Cc1c[nH]c2ccccc12)C(=O)N[C@@H](CC(C)C)C(=O)N[C@@H](CCSC)C(=O)N[C@@H](CC(=O)O)C(=O)NCC(=O)N[C@@H](CCCNC(=N)N)C(=O)NCC(N)=O)C(C)C)C(=O)O)C(=O)O [compound 22] (H-H[Aib]QGTFTSDK([γGlu-γGlu-Palmitoyl])SKYLD[Aib]RAAQDFVQWLMDGRG-NH2; N-terminus assumed) | 0.005 nM | 0.002 nM | 2.37 nM |
| CCCCCCCCCCCCCCCC(=O)N[C@@H](CCC(=O)N[C@@H](CCC(=O)NCCCC[C@H](NC(=O)[C@H](CC(=O)O)NC(=O)[C@H](CO)NC(=O)[C@@H](NC(=O)[C@H](Cc1ccccc1)NC(=O)[C@@H](NC(=O)CNC(=O)[C@H](CCC(N)=O)NC(=O)C(C)(C)NC(=O)[C@@H](N)Cc1c[nH]cn1)[C@@H](C)O)[C@@H](C)O)C(=O)N[C@@H](CO)C(=O)N[C@@H](CCCCN)C(=O)N[C@@H](Cc1ccc(O)cc1)C(=O)N[C@@H](CC(C)C)C(=O)N[C@@H](CC(=O)O)C(=O)N[C@@H](CCC(=O)O)C(=O)N[C@@H](CCCNC(=N)N)C(=O)N[C@@H](C)C(=O)N[C@@H](C)C(=O)N[C@@H](CCC(N)=O)C(=O)N[C@@H](CC(=O)O)C(=O)N[C@@H](Cc1ccccc1)C(=O)N[C@H](C(=O)N[C@@H](CCC(N)=O)C(=O)N[C@@H](Cc1c[nH]c2ccccc12)C(=O)N[C@@H](CC(C)C)C(=O)N[C@@H](CCSC)C(=O)N[C@@H](CC(=O)O)C(=O)N[C@H](C(N)=O)[C@@H](C)O)C(C)C)C(=O)O)C(=O)O [compound 61] | 0.009 nM | 0.004 nM | 0.676 nM |
